Converted amounts (≈) assume the structure as drawn. The source made the active and inactive calls. The calls are words filed in the database; no cut-off is given here.
Key:
Staphylococcus aureus [1] = experiment: Antimicrobial activity against Staphylococcus aureus MTCC 96 assessed as growth inhibition at 4 mg/ml after 24 hrs by agar well diffusion method; format: functional; details: for zone of inhibition at 4000 µg/mL: MTCC 96, 24 h, read-out: DIZ
Pseudomonas aeruginosa [2] = experiment: microbe, parasite or virus in culture; details: MTCC 741, 24 h, read-out: DIZ
Description: (§1) Antimicrobial activity against Pseudomonas aeruginosa MTCC 741 assessed as growth inhibition at 4 mg/ml after 24 hrs by agar well diffusion method

Bacillus subtilis [3] = experiment: Antimicrobial activity against Bacillus subtilis MTCC 121 assessed as growth inhibition after 24 hrs by agar well diffusion method; format: functional
Bacillus subtilis [4] = experiment: Antimicrobial activity against Bacillus subtilis MTCC 121 assessed as growth inhibition at 4 mg/ml after 24 hrs by agar well diffusion method; format: functional; details: for zone of inhibition at 4000 µg/mL: MTCC 121, 24 h, read-out: DIZ
Rattus norvegicus [5] = experiment: Antiinflammatory activity against carrageenan-induced paw edema male Wistar albino rat at 50 mg/kg, ip administered 30 mins prior to carrageenan-challenge measured after 3 hrs relative to control; format: functional; details: route intraperitoneal
Rattus norvegicus [6] = experiment: Antiinflammatory activity against carrageenan-induced paw edema male Wistar albino rat assessed as edema volume at 50 mg/kg, ip administered 30 mins prior to carrageenan-challenge measured after 2 hrs (reference value: 1.21 +/- 0.16 mL); format: functional; details: route intraperitoneal
Candida albicans [7] = experiment: Antimicrobial activity against Candida albicans MTCC 3017 assessed as growth inhibition at 4 mg/ml after 24 hrs by agar well diffusion method; format: functional; details: MTCC 3017, 24 h, read-out: DIZ
Pseudomonas aeruginosa [8] = details: MTCC 741, 4 mg/ml
Description: as §1

Rattus norvegicus [9] = experiment: Antiinflammatory activity against carrageenan-induced paw edema male Wistar albino rat assessed as edema volume at 50 mg/kg, po administered 30 mins prior to carrageenan-challenge measured after 1 hr (reference value: 1.11 +/- 0.12 mL); format: functional
Saccharomyces cerevisiae [10] = experiment: Antimicrobial activity against Saccharomyces cerevisiae MTCC 170 assessed as growth inhibition at 4 mg/ml after 24 hrs by agar well diffusion method; format: functional; details: for zone of inhibition at 4000 µg/mL: MTCC 170, 24 h, read-out: DIZ
Rattus norvegicus [11] = experiment: Antiinflammatory activity against carrageenan-induced paw edema male Wistar albino rat assessed as edema volume at 50 mg/kg, ip administered 30 mins prior to carrageenan-challenge measured after 4 hrs (reference value: 1.88 +/- 0.20 mL); format: functional; details: route intraperitoneal
Saccharomyces cerevisiae [12] = experiment: Antimicrobial activity against Saccharomyces cerevisiae MTCC 170 assessed as growth inhibition after 24 hrs by agar well diffusion method; format: functional
Escherichia coli = experiment: Antimicrobial activity against Escherichia coli MTCC 1652 assessed as growth inhibition at 4 mg/ml after 24 hrs by agar well diffusion method; format: functional, organism-based
Candida albicans [13] = experiment: Antimicrobial activity against Candida albicans MTCC 3017 assessed as growth inhibition after 24 hrs by agar well diffusion method; format: functional; details: MTCC 3017, 24 h
Rattus norvegicus [14] = experiment: Antiinflammatory activity against carrageenan-induced paw edema male Wistar albino rat at 50 mg/kg, ip administered 30 mins prior to carrageenan-challenge measured after 2 hrs relative to control; format: functional; details: route intraperitoneal
Rattus norvegicus [15] = experiment: Antiinflammatory activity against carrageenan-induced paw edema male Wistar albino rat at 50 mg/kg, ip administered 30 mins prior to carrageenan-challenge measured after 4 hrs relative to control; format: functional; details: route intraperitoneal
Rattus norvegicus [16] = experiment: Antiinflammatory activity against carrageenan-induced paw edema male Wistar albino rat at 50 mg/kg, ip administered 30 mins prior to carrageenan-challenge measured after 1 hr relative to control; format: functional; details: route intraperitoneal
Rattus norvegicus [17] = experiment: Antiinflammatory activity against carrageenan-induced paw edema male Wistar albino rat assessed as edema volume at 50 mg/kg, ip administered 30 mins prior to carrageenan-challenge measured after 3 hrs (reference value: 1.73 +/- 0.09 mL); format: functional; details: route intraperitoneal
Staphylococcus aureus [18] = experiment: Antimicrobial activity against Staphylococcus aureus MTCC 96 assessed as growth inhibition after 24 hrs by agar well diffusion method; format: functional
Rattus norvegicus [19] = experiment: Antiinflammatory activity against carrageenan-induced paw edema male Wistar albino rat at 10 mg/kg, ip administered 30 mins prior to carrageenan-challenge measured after 4 hrs relative to control; format: functional; details: route intraperitoneal
Rattus norvegicus [20] = experiment: Antiinflammatory activity against carrageenan-induced paw edema male Wistar albino rat at 10 mg/kg, ip administered 30 mins prior to carrageenan-challenge measured after 3 hrs relative to control; format: functional; details: route intraperitoneal
Rattus norvegicus [21] = experiment: Antiinflammatory activity against carrageenan-induced paw edema male Wistar albino rat assessed as edema volume at 10 mg/kg, ip administered 30 mins prior to carrageenan-challenge measured after 4 hrs (reference value: 1.88 +/- 0.20 mL); format: functional; details: route intraperitoneal
Rattus norvegicus [22] = experiment: Antiinflammatory activity against carrageenan-induced paw edema male Wistar albino rat assessed as edema volume at 10 mg/kg, ip administered 30 mins prior to carrageenan-challenge measured after 3 hrs (reference value: 1.73 +/- 0.09 mL); format: functional; details: route intraperitoneal
Rattus norvegicus [23] = experiment: Antiinflammatory activity against carrageenan-induced paw edema male Wistar albino rat at 10 mg/kg, ip administered 30 mins prior to carrageenan-challenge measured after 2 hrs relative to control; format: functional; details: route intraperitoneal
Rattus norvegicus [24] = experiment: Antiinflammatory activity against carrageenan-induced paw edema male Wistar albino rat assessed as edema volume at 10 mg/kg, ip administered 30 mins prior to carrageenan-challenge measured after 1 hr (reference value: 1.11 +/- 0.12 mL); format: functional; details: route intraperitoneal
Rattus norvegicus [25] = experiment: Antiinflammatory activity against carrageenan-induced paw edema male Wistar albino rat at 10 mg/kg, ip administered 30 mins prior to carrageenan-challenge measured after 1 hr relative to control; format: functional; details: route intraperitoneal
Rattus norvegicus [26] = experiment: Antiinflammatory activity against carrageenan-induced paw edema male Wistar albino rat assessed as edema volume at 10 mg/kg, ip administered 30 mins prior to carrageenan-challenge measured after 2 hrs (reference value: 1.21 +/- 0.16 mL); format: functional; details: route intraperitoneal

SMILES | MIC (Bacillus subtilis [3]; MTCC 121, 24 h) [mg/L] | zone of inhibition at 4000 µg/mL (Bacillus subtilis [4]) [mm] | Activity (Rattus norvegicus [5]) [%] | Activity (Rattus norvegicus [6]) [mL] | zone of inhibition at 4000 µg/mL (Candida albicans [7]) [mm] | diameter of the inhibition zone (DIZ) (Staphylococcus aureus [1]) | DIZ (Pseudomonas aeruginosa [8]) | Activity (Rattus norvegicus [9]) [mL] | Activity (Rattus norvegicus [11]) [mL] | diameter of the inhibition zone (DIZ) (Escherichia coli) | MIC (Candida albicans [13]) [mg/L] | Activity (Rattus norvegicus [14]) [%] | Activity (Rattus norvegicus [15]) [%] | Activity (Rattus norvegicus [16]) [%] | Activity (Rattus norvegicus [17]) [mL] | MIC (Staphylococcus aureus [18]) | zone of inhibition at 4000 µg/mL (Saccharomyces cerevisiae [10]) [mm] | MIC (Saccharomyces cerevisiae [12]; MTCC 170, 24 h) [mg/L] | MIC (Bacillus subtilis [3]) | diameter of the inhibition zone (DIZ) (Bacillus subtilis [4]) | also measured
O=C(O)c1cn(C2CC2)c2cc(N3CCNCC3)c(F)cc2c1=O [CIPROFLOXACIN] | 6.25 (≈ 18.9 µM) | 24 |  |  |  |  |  |  |  |  |  |  |  |  |  |  |  |  |  |  | zone of inhibition at 4000 µg/mL (Staphylococcus aureus [1]): 24 mm; zone of inhibition at 4000 µg/mL (Pseudomonas aeruginosa [2]): 22 mm
CCOC(=O)c1sc(-c2cn(-c3ccccc3)nc2-c2ccc(OC)cc2)nc1-c1ccccc1 | 50 (≈ 104 µM) | 15 | 80.92 | 0.2 | 18.3 | inactive | inactive | 0.11 | 0.24 | inactive | 25 (≈ 51.9 µM) | 83.47 | 90.95 | 90.19 | 0.33 | inactive |  |  |  |  | diameter of the inhibition zone (DIZ) (Saccharomyces cerevisiae [10]): inactive; MIC (Saccharomyces cerevisiae [12]): inactive
O=C(O)c1sc(-c2cn(-c3ccccc3)nc2-c2ccc(Cl)cc2)nc1-c1ccc(F)cc1 |  |  | 71.67 | 0.33 | 12 | inactive | inactive | 0.29 | 0.38 | inactive | 50 (≈ 105 µM) | 72.72 | 79.78 | 73.87 | 0.49 | inactive | 24.6 | 12.5 (≈ 26.3 µM) | inactive | inactive | 
CCOC(=O)c1sc(-c2cn(-c3ccccc3)nc2-c2ccc(F)cc2)nc1-c1ccc(Cl)cc1 |  |  | 80.34 | 0.22 | 17.6 | inactive | inactive | 0.17 | 0.26 | inactive | 50 (≈ 99.2 µM) | 81.81 | 86.17 | 84.68 | 0.34 | inactive |  |  | inactive | inactive | diameter of the inhibition zone (DIZ) (Saccharomyces cerevisiae [10]): inactive; MIC (Saccharomyces cerevisiae [12]): inactive
O=C(O)c1sc(-c2cn(-c3ccccc3)nc2-c2ccc(F)cc2)nc1-c1ccc(F)cc1 | 50 (≈ 109 µM) | 17.6 | 64.73 | 0.57 | 19.6 |  | inactive | 0.23 | 0.47 | inactive | 25 (≈ 54.4 µM) | 52.89 | 75 | 79.27 | 0.61 |  | 17.6 | 25 (≈ 54.4 µM) |  |  | zone of inhibition at 4000 µg/mL (Staphylococcus aureus [1]): 15.3 mm; MIC (Staphylococcus aureus [18]; MTCC 96, 24 h): 50 mg/L (≈ 109 µM)
O=C(O)c1sc(-c2cn(-c3ccccc3)nc2-c2ccc(F)cc2)nc1-c1ccccc1 | 25 (≈ 56.6 µM) | 18.3 | 78.61 | 0.22 | 21.3 |  | inactive | 0.14 | 0.18 | inactive | 25 (≈ 56.6 µM) | 81.81 | 90.42 | 87.38 | 0.37 |  | > 20 | 50 (≈ 113 µM) |  |  | zone of inhibition at 4000 µg/mL (Staphylococcus aureus [1]): 20.3 mm; MIC (Staphylococcus aureus [18]; MTCC 96, 24 h): 25 mg/L (≈ 56.6 µM)
CCOC(=O)c1sc(-c2cn(-c3ccccc3)nc2-c2ccccc2)nc1-c1ccc(F)cc1 |  |  | 82.08 | 0.22 | 18.6 | inactive | inactive | 0.29 | 0.42 | inactive | 25 (≈ 53.2 µM) | 81.81 | 88.29 | 73.87 | 0.31 | inactive |  |  | inactive | inactive | diameter of the inhibition zone (DIZ) (Saccharomyces cerevisiae [10]): inactive; MIC (Saccharomyces cerevisiae [12]): inactive
COc1ccc2c(c1)c(CC(=O)O)c(C)n2C(=O)c1ccc(Cl)cc1 [INDOMETHACIN] |  |  |  |  |  |  |  |  |  |  |  |  |  |  |  |  |  |  |  |  | Activity (Rattus norvegicus [19]): 91.48%; Activity (Rattus norvegicus [20]): 91.32%; Activity (Rattus norvegicus [21]): 0.16 mL; Activity (Rattus norvegicus [22]): 0.15 mL; Activity (Rattus norvegicus [23]): 88.42%; Activity (Rattus norvegicus [24]): 0.07 mL; Activity (Rattus norvegicus [25]): 93.69%; Activity (Rattus norvegicus [26]): 0.14 mL
CCOC(=O)c1sc(-c2cn(-c3ccccc3)nc2-c2ccc(Cl)cc2)nc1-c1ccc(Cl)cc1 |  |  | 93.06 | 0.27 | 13 | inactive | inactive | 0.18 | 0.18 | inactive | 50 (≈ 96.1 µM) | 77.68 | 90.42 | 83.78 | 0.12 | inactive | 15 | 50 (≈ 96.1 µM) | inactive | inactive | 

— ChEMBL document CHEMBL3396992, “Synthesis and biological evaluation of pyrazolylthiazole carboxylic acids as potent anti-inflammatory-antimicrobial agents” (2015)
